# Target: T1, human PTH1 receptor (Homo sapiens, UniProt Q03431)
# T1 sequence (Q03431 27-593): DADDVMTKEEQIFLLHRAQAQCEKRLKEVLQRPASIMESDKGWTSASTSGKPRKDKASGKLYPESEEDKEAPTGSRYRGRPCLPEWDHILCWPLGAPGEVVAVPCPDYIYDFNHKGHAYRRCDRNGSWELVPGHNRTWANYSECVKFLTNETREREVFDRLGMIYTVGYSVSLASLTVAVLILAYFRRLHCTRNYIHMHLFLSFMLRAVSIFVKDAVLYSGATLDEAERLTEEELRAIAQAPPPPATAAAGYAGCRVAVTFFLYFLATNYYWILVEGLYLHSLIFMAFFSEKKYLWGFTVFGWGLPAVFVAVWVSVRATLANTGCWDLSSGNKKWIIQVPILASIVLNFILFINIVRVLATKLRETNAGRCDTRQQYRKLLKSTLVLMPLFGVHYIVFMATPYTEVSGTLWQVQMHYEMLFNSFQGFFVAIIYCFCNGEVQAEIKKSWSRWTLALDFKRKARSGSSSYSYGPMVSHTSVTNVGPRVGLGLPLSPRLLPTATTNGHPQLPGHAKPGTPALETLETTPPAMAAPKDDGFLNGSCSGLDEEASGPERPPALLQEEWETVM
# Experiment: In vitro cAMP signal activity in HKRK-B7 cells (LLC-PK1 cells overexpressing the human PTH1 receptor)
# Assay type: cell-based
# Settings: HKRK-B7 cells; compound at 1×10^−3 M; […]; 0.1 µM
row,SMILES,cAMP production activity (%)
1,"Cc1cc(C(=O)N2CCC(F)(CO)CC2)ccc1CCS(=O)(=O)N1CCC2(CC1)N=C([C@H]1CC[C@H](CC=C(F)F)CC1)NC2=O [Compound 973, 2-[4-(3,3-Difluoro-allyl)-cyclohexyl]-8-{2-[4-(4-fluoro-4-hydroxymethyl-piperidine-1-carbonyl)-2-methyl-phenyl}-ethanesulfonyl]-1,3,8-triaza-spiro[4.5]dec-1-en-4-one]",112

# Same assay, conditions: HKRK-B7 cells; compound at 1×10^−3 M; cAMP produced as percentage of that produced by hPTH(1-34) at 100 nM
row,SMILES,cAMP production activity (%)
1,Cc1cc2ccc1CCS(=O)(=O)N1CCC3(CC1)N=C(NC3=O)c1cc(cc(C(F)(F)F)c1)OCCOCCOCCN(C)C2=O [Compound 1438],40
2,"Cc1cc(C(=O)N(C)C)ccc1-c1ccc(S(=O)(=O)N2CCC3(CC2)N=C(c2cccc(C(F)(F)F)c2)NC3=O)s1 [Compound 331, 3,N,N-trimethyl-4-{5-[4-oxo-2-(3-trifluoromethyl-phenyl)-1,3,8-triaza-spiro[4.5]dec-1-ene-8-sulfonyl]-thiophen-2-yl}-benzamide]",55
3,"Cc1cc(C(=O)O)cc(C)c1/C=C/S(=O)(=O)N1CCC2(CC1)N=C(C1CCC(CCC(F)(F)F)CC1)NC2=O (stereo not drawn) [Compound 547, 3,5-dimethyl-4-((E)-2-{4-oxo-2-[4-(3,3,3-trifluoro-propyl)-cyclohexyl]-1,3,8-triaza-spiro[4.5]dec-1-ene-8-sulfonyl}-vinyl)-benzoic acid]",52
4,"CC(=O)Nc1ccc(CCS(=O)(=O)N2CCC3(CC2)N=C([C@H]2CC[C@H](CCC(F)F)CC2)NC3=O)c(C)c1 [Compound 955, N-[4-(2-{2-[4-(3,3-Difluoro-propyl)-cyclohexyl]-4-oxo-1,3,8-triaza-spiro[4.5]dec-1-ene-8-sulfonyl}-ethyl)-3-methyl-phenyl]-acetamide]",79
5,"Cc1cc(N(CCO)C(N)=O)cc(C)c1/C=C/S(=O)(=O)N1CCC2(CC1)N=C(c1cccc(OC(F)(F)F)c1)NC2=O [Compound 605, 1-(3,5-dimethyl-4-{(E)-2-[4-oxo-2-(3-trifluoromethoxy-phenyl)-1,3,8-triaza-spiro[4.5]dec-1-ene-8-sulfonyl]-vinyl}-phenyl)-1-(2-hydroxy-ethyl)-urea]",54
6,"COCc1cc(NC(C)=O)ccc1/C=C/S(=O)(=O)N1CCC2(CC1)N=C(C1CCC(C)CC1)NC2=O (stereo not drawn) [Compound 512, N-(3-methoxymethyl-4-{(E)-2-[2-(4-methyl-cyclohexyl)-4-oxo-1,3,8-triaza-spiro[4.5]dec-1-ene-8-sulfonyl]-vinyl}-phenyl)-acetamide]",49
7,"Cc1cc(NCC(=O)NCCN(C)C)ccc1CCS(=O)(=O)N1CCC2(CC1)N=C(c1cccc(OC(F)(F)F)c1)NC2=O [Compound 665, N-(2-Dimethylamino-ethyl)-2-(3-methyl-4-{2-[4-oxo-2-(3-trifluoromethoxy-phenyl)-1,3,8-triaza-spiro[4.5]dec-1-ene-8-sulfonyl]-ethyl}-phenylamino)-acetamide]",54
8,"Cc1cc(N2C(=O)CC[C@@H]2CO)ccc1CCS(=O)(=O)N1CCC2(CC1)N=C(c1cccc(C(F)(F)F)c1)NC2=O [Compound 268, 8-{2-[4-((R)-2-Hydroxymethyl-5-oxo-pyrrolidin-1-yl)-2-methyl-phenyl]-ethanesulfonyl}-2-(3-trifluoromethyl-phenyl)-1,3,8-triaza-spiro[4.5]dec-1-en-4-one]",99
9,"Cc1cc(N2CCC(=O)NC2=O)cc(C)c1/C=C/S(=O)(=O)N1CCC2(CC1)N=C(C1CCC(C)CC1)NC2=O (stereo not drawn) [Compound 587, 1-(3,5-dimethyl-4-{(E)-2-[2-(4-methyl-cyclohexyl)-4-oxo-1,3,8-triaza-spiro[4.5]dec-1-ene-8-sulfonyl]-vinyl}-phenyl)-dihydro-pyrimidine-2,4-dione]",53
10,"CC(=O)N(CCO)c1ccc(/C=C/S(=O)(=O)N2CCC3(CC2)N=C(c2cccc(C(F)(F)F)c2F)NC3=O)c(C)c1 [Compound 259, N-(4-{(E)-2-[2-(2-Fluoro-3-trifluoromethyl-phenyl)-4-oxo-1,3,8-triaza-spiro[4.5]dec-1-ene-8-sulfonyl]-vinyl}-3-methyl-phenyl)-N-(2-hydroxy-ethyl)-acetamide]",67
11,"CO[C@H]1CC[C@@H](C2=NC3(CCN(S(=O)(=O)c4cccc(Cl)c4)CC3)C(=O)N2)CC1 [Compound 24, 8-(3-chloro-benzenesulfonyl)-2-(4-methoxy-cyclohexyl)-1,3,8-triaza-spiro[4.5]dec-1-en-4-one]",18
12,"Cc1cc(C(=O)N2CCC(O)(CF)CC2)cc(C)c1/C=C/S(=O)(=O)N1CCC2(CC1)N=C(c1ccc3cc[nH]c3c1)NC2=O [Compound 1268, 8-{(E)-2-[4-(4-fluoromethyl-4-hydroxy-piperidine-1-carbonyl)-2,6-dimethyl-phenyl]-ethenesulfonyl}-2-(1H-indol-6-yl)-1,3,8-triaza-spiro[4.5]dec-1-en-4-one]",33
13,"Cc1cc(C(=O)N2CCC(O)CC2)cc(C)c1/C=C/S(=O)(=O)N1CCC2(CC1)N=C(c1ccc(F)c(C(F)(F)F)c1)NC2=O [Compound 535, 2-(4-fluoro-3-trifluoromethyl-phenyl)-8-{(E)-2-[4-(4-hydroxy-piperidine-1-carbonyl)-2,6-dimethyl-phenyl]-ethenesulfonyl}-1,3,8-triaza-spiro[4.5]dec-1-en-4-one]",83
14,"Cc1cc(C(=O)N2CCC(CO)CC2)cc(C)c1/C=C/[S@TB4](=O)(=O)N1CCC2(CC1)N=C(c1ccc(F)c(C(F)(F)F)c1)NC2=O [Compound 1162, 2-(4-fluoro-3-trifluoromethyl-phenyl)-8-{(E)-2-[4-(4-hydroxymethyl-piperidine-1-carbonyl)-2,6-dimethyl-phenyl]-ethenesulfonyl}-1,3,8-triaza-spiro[4.5]dec-1-en-4-one]",112
15,"Cc1cc(S(=O)(=O)NC(CO)(CO)CO)ccc1CCS(=O)(=O)N1CCC2(CC1)N=C(c1cccc(C(F)(F)F)c1)NC2=O [Compound 854, N-(2-hydroxy-1,1-bis-hydroxymethyl-ethyl)-3-methyl-4-{2-[4-oxo-2-(3-trifluoromethyl-phenyl)-1,3,8-triaza-spiro[4.5]dec-1-ene-8-sulfonyl]-ethyl}-benzenesulfonamide]",80
16,"[2H]C([2H])([2H])C([2H])([2H])Oc1cc(C2=NC3(CCN(S(=O)(=O)/C=C/c4c(C)cc(C(=O)N5CCC(O)(CF)CC5)cc4C)CC3)C(=O)N2)ccc1F [Compound 1272, 2-(3-[1,1,2,2,2-^2H5]ethoxy-4-fluoro-phenyl)-8-{(E)-2-[4-(4-fluoromethyl-4-hydroxy-piperidine-1-carbonyl)-2,6-dimethyl-phenyl]-ethenesulfonyl}-1,3,8-triaza-spiro[4.5]dec-1-en-4-one]",71
17,"Cc1cc(S(=O)(=O)Nc2ccncc2)ccc1/C=C/S(=O)(=O)N1CCC2(CC1)N=C(c1cccc(OC(F)(F)F)c1)NC2=O [Compound 530, 3-methyl-4-{(E)-2-[4-oxo-2-(3-trifluoromethoxy-phenyl)-1,3,8-triaza-spiro[4.5]dec-1-ene-8-sulfonyl]-vinyl}-N-pyridin-4-yl-benzenesulfonamide]",18
18,"O=C1NC(C2CCCCC2)=NC12CCN(S(=O)(=O)/C=C/c1nccs1)CC2 [Compound 343, 2-Cyclohexyl-8-((E)-2-thiazol-2-yl-ethenesulfonyl)-1,3,8-triaza-spiro[4.5]dec-1-en-4-one]",13
19,"Cc1cc(N(C)C(N)=O)cc(C)c1CCS(=O)(=O)N1CCC2(CC1)N=C(c1ccc3c(c1)CCCC3)NC2=O [Compound 1039, 1-(3,5-Dimethyl-4-{2-[4-oxo-2-(5,6,7,8-tetrahydro-naphthalen-2-yl)-1,3,8-triaza-spiro[4.5]dec-1-ene-8-sulfonyl]-ethyl}-phenyl)-1-methyl-urea]",103
20,"Cc1cc2c(ccn2C[C@@H](O)CO)c(C)c1/C=C/S(=O)(=O)N1CCC2(CC1)N=C(C1CCC(CCC(F)(F)F)CC1)NC2=O (stereo partly drawn) [Compound 630, 8-{(E)-2-[1-((R)-2,3-dihydroxy-propyl)-4,6-dimethyl-1H-indol-5-yl]-ethenesulfonyl}-2-[4-(3,3,3-trifluoro-propyl)-cyclohexyl]-1,3,8-triaza-spiro[4.5]dec-1-en-4-one]",4.1
21,"Cc1cc(C(=O)N2CCC(O)(CF)CC2)cc(C)c1CCS(=O)(=O)N1CCC2(CC1)N=C(c1ccc(F)c(C(F)(F)F)c1)NC2=O [Compound 802, 8-{2-[4-(4-fluoromethyl-4-hydroxy-piperidine-1-carbonyl)-2,6-dimethyl-phenyl]-ethanesulfonyl}-2-(4-fluoro-3-trifluoromethyl-phenyl)-1,3,8-triaza-spiro[4.5]dec-1-en-4-one]",100
22,"O=C1NC(C2CCCCC2)=NC12CCN(S(=O)(=O)/C=C/c1ccc3c(ccn3C[C@H](O)CO)c1)CC2 [Compound 702, 2-Cyclohexyl-8-{(E)-2-[1-((S)-2,3-dihydroxy-propyl)-1H-indol-5-yl]-ethenesulfonyl}-1,3,8-triaza-spiro[4.5]dec-1-en-4-one]",84
23,"Cc1noc(C)c1S(=O)(=O)N1CCC2(CC1)N=C(C1CCCCC1)NC2=O [Compound 59, 2-cyclohexyl-8-(3,5-dimethyl-isoxazole-4-sulfonyl)-1,3,8-triaza-spiro[4.5]dec-1-en-4-one]",56

# — patent US9169254B2, “Spiroimidazolone derivative” (Chugai Seiyaku Kabushiki Kaisha, priority 2009, dated 2015)
